Assay results as given in publication PMC8092268, “Quorum Sensing in Streptococcus mutans Regulates Production of Tryglysin, a Novel RaS-RiPP Antimicrobial Compound” (mBio, 2021).
Entries after “also recorded” stand apart in the source; their conditions may differ. Marks after values point to notes of the source that are not given here. No end group written: not given here.

Legend:
[1] = tested on: Pshp-luxAB reporter (PdrA/SHP system); assay: luciferase assay, chromosomal Pshp-luxAB reporter, wild type; settings: CDM; for induction of Pshp-luxAB by tryglysins: 100 nM tryglysin
[2] = tested on: E. faecalis V583; assay: growth inhibition by tryglysins; assay type: cell-based, Enterococcus faecalis; set-up: key: −: not inhibited; +: mildly inhibited; ++: inhibited; settings: 100 nM tryglysin, CDM, 37°C, 5% CO2, OD600 every hour; summary of growth curves
Description: (§1) For experiments to examine the effect of tryglysins, bacterial strains were grown from prestored glycerol stocks at −80°C and inoculated into THY broth. […] To monitor growth, OD600 was measured using a GENESYS 30 Vis spectrophotometer every hour.

[3] = tested on: L. lactis ATCC 11454; assay: growth inhibition by tryglysins; assay type: cell-based, Lactococcus lactis; set-up: key: −: not inhibited; +: mildly inhibited; ++: inhibited; settings: 100 nM tryglysin, CDM, 37°C, 5% CO2, OD600 every hour; summary of growth curves
Description: as §1

[4] = tested on: S. pyogenes NZ131; assay: growth inhibition by tryglysins; assay type: cell-based, Streptococcus pyogenes; set-up: key: −: not inhibited; +: mildly inhibited; ++: inhibited; settings: 100 nM tryglysin, CDM, 37°C, 5% CO2, OD600 every hour; summary of growth curves
Description: as §1

[5] = tested on: S. ferus DSM 20646; assay: growth inhibition by tryglysins; assay type: cell-based, Streptococcus ferus; set-up: key to Level of inhibition: −: not inhibited; +: mildly inhibited; ++: inhibited; settings: CDM; for Level of inhibition: 100 nM tryglysin, 37°C, 5% CO2, OD600 every hour, summary of growth curves; for growth inhibition at 100 nM (titration): Fig. 6
Description: as §1

[6] = tested on: S. mutans UA159; assay: growth inhibition by tryglysins; assay type: cell-based, Streptococcus mutans; set-up: key to Level of inhibition: −: not inhibited; +: mildly inhibited; ++: inhibited; settings: for Level of inhibition: 100 nM tryglysin, 37°C, 5% CO2, OD600 every hour, summary of growth curves; for growth inhibition at 100 nM (titration): 9-h growth assay, Fig. 6
Description: as §1

[7] = tested on: S. gordonii Challis Bt; assay: growth inhibition by tryglysins; assay type: cell-based, Streptococcus gordonii; set-up: key: −: not inhibited; +: mildly inhibited; ++: inhibited; settings: 100 nM tryglysin, CDM, 37°C, 5% CO2, OD600 every hour; summary of growth curves
Description: as §1

[8] = tested on: S. mitis CCUG 31611; assay: growth inhibition by tryglysins; assay type: cell-based, Streptococcus mitis; set-up: key: −: not inhibited; +: mildly inhibited; ++: inhibited; settings: 100 nM tryglysin, CDM, 37°C, 5% CO2, OD600 every hour; summary of growth curves
Description: as §1

[9] = tested on: S. oralis 108; assay: growth inhibition by tryglysins; assay type: cell-based, Streptococcus oralis; set-up: key: −: not inhibited; +: mildly inhibited; ++: inhibited; settings: 100 nM tryglysin, CDM, 37°C, 5% CO2, OD600 every hour; summary of growth curves
Description: as §1

[10] = tested on: S. pneumoniae D39; assay: growth inhibition by tryglysins; assay type: cell-based, Streptococcus pneumoniae; set-up: key to Level of inhibition: −: not inhibited; +: mildly inhibited; ++: inhibited; settings: for Level of inhibition: 100 nM tryglysin, CDM, 37°C, 5% CO2, OD600 every hour, summary of growth curves
Description: as §1

[11] = tested on: S. agalactiae A909; assay: growth inhibition by tryglysins; assay type: cell-based, Streptococcus agalactiae; set-up: key: −: not inhibited; +: mildly inhibited; ++: inhibited; settings: 100 nM tryglysin, CDM, 37°C, 5% CO2, OD600 every hour; summary of growth curves
Description: as §1

[12] = tested on: S. bovis JB1; assay: growth inhibition by tryglysins; assay type: cell-based, Streptococcus bovis; set-up: key: −: not inhibited; +: mildly inhibited; ++: inhibited; settings: 100 nM tryglysin, CDM, 37°C, 5% CO2, OD600 every hour; summary of growth curves
Description: as §1

[13] = tested on: S. mutans UA159; assay: CFU/ml assay (bacteriostatic or bactericidal); assay type: cell-based, Streptococcus mutans; settings: 100 nM, CDM; for recovery of viability: 24 h; for mode of action on viability: overall effect
Description: To perform CFU/milliliter assays, S. mutans was grown overnight, washed, and resuspended in CDM as outlined above in the “Luciferase assays with chromosomal reporters” section, with the exception that replicate tubes for harvest at each time point for both no-tryglysin and tryglysin-treated conditions were inoculated from bacterial cultures resuspended overnight. […] At this time point (0 h) and at 1, 2, 4, 6, 8 and 24 h after tryglysin addition, a set of no-tryglysin and tryglysin-treated tubes were harvested. At each time point, 100 μl from each tube in a set was harvested and diluted 1:10 successively in fresh THY. Dilutions from 10^−3 to 10^−6 (depending on the time point) were plated as follows: for each dilution, 10 μl was plated in triplicate on THY agar plates and allowed to drip vertically down the plate. This allowed for the spread of S. mutans colonies for later CFU/ml counting. After each dilution plating, plates were placed at 37°C and incubated for 48 h. […] After 2 days of incubation, colonies were counted for each time point, replicate, and condition, and the number of CFU/milliliter was calculated. Drip plates were considered to have accurate counts if colonies were between 10 and 150 colonies per drip. […] Statistical analysis was performed using a one-way ANOVA with Sidak’s multiple comparison posttest on Graph Pad Prism.

[14] = tested on: S. mutans UA159; assay: cell chaining by microscopy; assay type: cell-based, Streptococcus mutans; settings: 100 nM
Description: For microscopic analysis of live cells exposed to tryglysins, S. mutans strains were inoculated and grown as described above in the “Luciferase assays with chromosomal reporters” section. […] For microscopic analysis of samples, 2 μl of live cells was taken at 2 h, 5 h, and 7 h after the addition of tryglysins and examined using an Olympus CKX53 inverted microscope with a 40× LCACHN-iPC infinity objective (LCACHN40XIPC; numerical aperture, 0.55) connected to a SC50 camera (Olympus). Images were processed using Olympus Stream Image Analysis software (Olympus).
For microscopic analysis of fixed cells exposed to tryglysin A, S. mutans strains were inoculated and grown as described above in the “Luciferase assays with chromosomal reporters” section. […] Supernatant was discarded, and cells were resuspended in 1 ml of fresh CDM. Resuspended cells were dropped into 10 ml of ice-cold 80% methanol and incubated for 1 h at room temperature. Afterwards, 800 μl of 4% paraformaldehyde was added to each methanol cell suspension. The mixture was incubated at room temperature for 5 min, and cells were spun down at 2,500 × g for 10 min. Supernatant was discarded, and cells were resuspended in 200 to 800 μl chilled GTE buffer (50 mM glucose, 20 mM Tris-HCl [pH 7.5], 1 mM EDTA). Cells were kept at 4°C overnight, and then 2 to 5 μl of cells in GTE buffer were placed on a microscope slide. Prepared slides were examined using an Olympus BX51 fluorescence microscope with a 100× UPLFLN objective (UPLFLN 100XO2; numerical aperture, 1.3) connected to an Olympus DP72 Single Chip color charge-coupled-device (CCD) camera. Images were processed using ImageJ 1.52i ([80]). […] Cells were classified as being in chains greater than three per chain or equal to or lesser than three per chain. The percentage of cells belonging to either of these categories was calculated as the number of cells in the category/total number of cells. […] For statistical analysis, data were analyzed via a one-way analysis of variance (ANOVA) with Dunnet’s multiple comparison posttest in Graph Pad Prism.

[15] = tested on: PwgkA-luxAB reporter (PdrA/SHP system); assay: luciferase assay, chromosomal PwgkA-luxAB reporter, wild type; settings: CDM, 100 nM tryglysin
[16] = tested on: S. mutans UA159; assay: growth inhibition by UV-exposed tryglysin A; assay type: cell-based, Streptococcus mutans; settings: short-wavelength UV light 1 h, 2 h or 4 h; 100 or 500 nM tryglysin A; CDM
Description: To monitor growth, OD600 was measured using a GENESYS 30 Vis spectrophotometer every hour, and data were plotted using Graph Pad Prism 8.0.0.

[17] = 5 h, A: one-way ANOVA with Dunnet's posttest
[18] = 7 h, A: one-way ANOVA with Dunnet's posttest

| Substance | Level of inhibition [2] | Level of inhibition [3] | Level of inhibition [4] | Level of inhibition [5] | growth inhibition at 100 nM (titration) [5] | optical density of cultures parallel to CFU assay [6] | Level of inhibition ([6]; CDM) | growth inhibition at 100 nM (titration) ([6]; CDM) | Level of inhibition [7] | Level of inhibition [8] | Level of inhibition [9] | Level of inhibition [10] | Level of inhibition [11] | Level of inhibition [12] | recovery of viability [13] | mode of action on viability [13] | cell chaining ([14]; 2 h) | cell chaining [14, 17] | cell chaining [14, 18] | induction of Pshp-luxAB by tryglysins [1] | also measured |
| --- | --- | --- | --- | --- | --- | --- | --- | --- | --- | --- | --- | --- | --- | --- | --- | --- | --- | --- | --- | --- | --- |
| GLDWWSL [XIP, reference compound] |  |  |  |  |  |  |  |  |  |  |  |  |  |  |  |  |  |  |  |  | induction of Pshp-luxAB reporter (cross talk) ([1]; 1 μM, Fig. S2C, performed twice): did not observe any induction |
| VNCWGKH (also: sidechain bridge or staple (positions not given here)) [tryglysin B, 7-mer macrocyclic peptide VNCWGKH carrying the tetrahydro[5,6]benzindole modification, predicted product of the S. mutans wgk cluster] | − | − | − | ++ | substantially inhibited | A proportionate inhibition and restoration of growth were observable by optical density measurements | ++ | substantially inhibited | + | ++ | ++ | ++ | + | + | treated cells were able to overcome this by 24 h | bacteriostatic activities rather than bactericidal | small chains were observed | appeared to do the same | appeared to do the same | do not induce the system | concentration required for complete growth inhibition ([6]; CDM, over the 9-h growth assay, Fig. 6A): 1 µM; induction of PwgkA-luxAB by tryglysins [15]: do not induce the system |
| VNSWGKH (also: sidechain bridge or staple (positions not given here)) [tryglysin A, macrocyclic 7-mer RiPP from S. ferus, VNSWGKH with tetrahydro[5,6]benzindole modification] | − | − | − | ++ | substantially inhibited | A proportionate inhibition and restoration of growth were observable by optical density measurements | ++ | substantially inhibited | + | ++ | ++ | ++^b | ++ | + | treated cells were able to overcome this by 24 h | bacteriostatic activities rather than bactericidal | small chains were observed | significantly increased | significantly increased | do not induce the system | reproducibility of inhibition ([10]; 100 nM, three experiments): b For S. pneumoniae D39, two experiments showed inhibition with 100 nM tryglysin A, one experiment did not.; inhibitory activity after UV exposure [16]: Proportionate decrease of inhibitory activity was observed; also recorded: inhibitory activity can be inactivated by exposure to UV light; induction of PwgkA-luxAB by tryglysins [15]: do not induce the system |
